Test [1] concerns human leutecyte strain cells (RPMI-8402). Put plainly: Rapid inspection of carcinostatic substances by counting divided cells with DAPI. In kind it is cell-based. As for the experimental part: After over a certain number of cancer cells are prepared by cultivation, a carcinostatic substance is added to the cancer cells. The number of the cells under the cell division at the respective measuring times is counted while continuing the cultivation. […] Accordingly, the effectiveness of the carcinostatic substance can be inspected by counting the number of the cells under the cell division among a certain number (for example, one thousand) of cells several times, comparing the said number with that of the former counting or the previous counting thereof and grasping the progress of the cell division by means of the increase or the decrease of the above comparison. If the DAPI is added with the carcinostatic substance during this procedure, the accurate counting of the number of the divided cells can be performed because the cells under the any phase of the cell division can be recognized. When the number of the divided cells decreases as a result of the comparison between the measurement values, it is judged that the multiplication of the cancer cells is depressed, or the function of the carcinostatic substance is performed. When, on the other hand, the number of the divided cells increases compared with the control, a certain function of the carcinostatic substance is judged to be performed. […] To the respective cultivation liquids were added, together with 1 μg/ml of the DAPI, (1) the control (no addition of the carcinostatic substance), (2) 5 μg/ml of CPT (camptotecin), (3) 10 μg/ml of CPT-11 ([…]), (4) 0.06 μg/ml of ADR (adriamycin), (5) 0.05 μg/ml of DNR (daunomycin), (6) 1 μ/ml of etoposide, (7) 20 μg/ml of MST-16 (sopsoxane), (8) 1 μg/ml of […]), (9) μg/ml of Act-D (actinomycin D), (10) 0.1 μg/ml of mitoxantrone. (11) 20 μg/ml of 5-FU, (12) 10 μg/ml of Ara-C (cytosinarabinoside) (13) 50 μg/ml of hydroxyurea, (14) 2 μg/ml of Aphidicolin, (15) 10 μg/ml of MTX (mesotroxate), (16) 0.05 μg/ml of VCR (vincristin), (17) 0.05 μg/ml of […]). (5) μg/ml of cisplatin, (18) 10 μg/ml of bleomycin, (20)10 μg/ml of MMC (mitomycin C) and (21) 5 μg/ml of cyclophospamide (endoxane). The samples were sampled from the respective cultivation liquids after one hour, […], 24 hours and then every 24 hour from the initiation of the cultivation. The samples were evaluated in accordance with the procedures of the preceding Examples. The results are shown in a graph of FIG. 15.

In test [2] the test system is human leutecyte strain cell (RPMI-8402). Put plainly: Extinction effect of compatible administration of l-OHP and a compatible agent on tumor cells (compatible efficiency OE). In kind it is cell-based. The following applies: for Compatible Effects of l-OHP and Compatible Agent, Simultaneous Administration: both added day 1. As for the experimental part:
In the evaluation of the extinction effect of the tumor cells of the respective combinations, a pure extinction effect produced by the compatible administration of the compatible agent and the l-OHP is calculated by subtracting an extinction effect of a control (no carcinostatic substance is employed).
The compatibly administration effect is calculated by employing an Equation (1) described later. When the value (%) calculated by this Equation is between 85 and 115%, the compatible administration effect is evaluated to be an additive effect. When the value is below 85%, it is evaluated to be below the additive effect. When the value is over 115%, it is evaluated to be a synergistic effect, ±15% is a reliability limit or a measurement error.
A target tumor cell was a human leutecyte strain cell (RPMI-8402 of Gibuko K.K.). To these cells was added blood serum of a cow embryo (15%, Gibuko K.K.) to prepare a cell floating liquid of which the number of the cells was 10^6/ml in a cultivation bottle (tradename; Sumiron of Sumitomo Bakelite o., Ltd.) having a volume of 6 ml. A plenty of the cultivation bottles having the cell floating liquid therein were prepared, and the following experiments were conducted while selecting one kind of a compatible agent among cisplatin, 5-FU, irinotecane, adriamycin, etoposide, mitomycin, mitoxantrone, bleomycin, vincristin and vindecin. The time schedules of the controls (no addition of medicines, addition of only the l-OHP and addition of only a compatible agent, and specified in the below items (1) to (4)) and of the compatible administration of the compatible agent and the l-OHP are shown in FIG. 10.
(1) No medicine was added (control).
(2) Only the l-OHP was added at a second day.
(3) A large amount of compatible agents were added at a first day ([…] of the cisplatin, 10 μg/ml of the 5-FU, 0.05 μg/ml of the adriamycin and 1 μg/ml of the etoposide, and for the comparison purpose, 0.05 μg/ml of the vincristin and 0.06 μg/ml of the vindecin). The adding amount of the irinotecano was fixed to 10 μg/ml, and the addition amount of the l-OHP was 5 μg/ml.
(4) A small amount of compatible agents were added at a first day (0.5 μg/ml of the cisplatin, 5 μg/ml of the 5-FU, 0.01 μg/ml of the adriamycin and 0.5 μg/ml of the etoposide, and for the comparison purpose, 0.01 μg/ml of the vincristin and 0.01 μg/ml of the vindecin). The adding amount of the irinotecane was fixed to 10 μg/ml, and the addition amount of the l-OHP was 1 μg/ml.
(5) The l-OHP and a large amount (the same as that of the above item (3) and so forth in the following items) of the compatible agents were simultaneously added at a first day.
(6) The l-OHP and a small amount (the same as that of the above item (4) and so forth in the following items) of the compatible agents were simultaneously added at a first day.
(7) The l-OHP was added at a first day and a large amount of the compatible agents were added at a second day.
(8) The l-OHP was added at a first day and a small amount of the compatible agents were added at a second day.
(9) The l-OHP was added at a first day and a large amount of the compatible agents were added at a third day.
(10) The l-OHP was added at a first day and a small amount of the compatible agents were added at a third day.
(11) The l-OHP was added at a first day and a large amount of the compatible agents were added at a fourth day.
(12) The l-OHP was added at a first day and a small amount of the compatible agents were added at a fourth day.
(13) A large amount of the compatible agents were added at a first day and the l-OHP was added at a second day.
(14) A small amount of the compatible agents were added at a first day and the l-OHP was added at a second day.
(15) A large amount of the compatible agents were added at a first day and the l-OHP was added at a third day.
(16) A small amount of the compatible agents were added at a first day and the l-OHP was added at a third day.

The mark [3] stands for this setting: larger dosage of compatible agent (μg/ml: cisplatin 1, 5-FU 10, irinotecane 10, adriamycin 0.05, vincristin 0.05, vindecin 0.05, etoposide 1, bleomycin 10, mitoxantrone 0.1, mitomycine 1), l-OHP 1 μg/ml (5 μg/ml with irinotecane) added day 1.
The mark [4] stands for this setting: larger dosage of compatible agent (μg/ml: cisplatin 1, 5-FU 10, irinotecane 10, adriamycin 0.05, vincristin 0.05, vindecin 0.05, etoposide 1, bleomycin 10, mitoxantrone 0.1, mitomycine 1), l-OHP 1 μg/ml (5 μg/ml with irinotecane).
Setting [5] is: larger dosage of compatible agent added day 1 (μg/ml: cisplatin 1, 5-FU 10, irinotecane 10, adriamycin 0.05, vincristin 0.05, vindecin 0.05, etoposide 1, bleomycin 10, mitoxantrone 0.1, mitomycine 1), l-OHP 1 μg/ml (5 μg/ml with irinotecane).
The mark [6] stands for this setting: smaller dosage of compatible agent (μg/ml: cisplatin 0.5, 5-FU 5, irinotecane 10, adriamycin 0.01, vincristin 0.01, vindecin 0.01, etoposide 0.5, bleomycin 1, mitoxantrone 0.05, mitomycine 0.5), l-OHP 1 μg/ml added day 1.
Setting [7] is: smaller dosage of compatible agent (μg/ml: cisplatin 0.5, 5-FU 5, irinotecane 10, adriamycin 0.01, vincristin 0.01, vindecin 0.01, etoposide 0.5, bleomycin 1, mitoxantrone 0.05, mitomycine 0.5), l-OHP 1 μg/ml.
Setting [8] is: smaller dosage of compatible agent added day 1 (μg/ml: cisplatin 0.5, 5-FU 5, irinotecane 10, adriamycin 0.01, vincristin 0.01, vindecin 0.01, etoposide 0.5, bleomycin 1, mitoxantrone 0.05, mitomycine 0.5), l-OHP 1 μg/ml.

Entries after “also recorded” stand apart in the source; their conditions may differ.

In the case of `CC(C)COC(=O)OCN1C(=O)CN(CCN2CC(=O)N(COC(=O)OCC(C)C)C(=O)C2)CC1=O` [MST-16, sopsoxane], the “number of the divided cells compared with the control (FIG. 15)” value in test [1] (0.05 μg/ml VCR, 0.05 μg/ml VDS, 20 μg/ml MST-16, with 1 μg/ml DAPI) is “increase of the number of the divided cells was momentarily observed”. The “division phases of the divided cells (microscope observation)” value in test [1] (ratio of the divided cells increased after the initiation of the cultivation, no anaphase or telophase cells observed) is “the division prophase and the division metaphase”.
As for `O=C1c2c(O)ccc(O)c2C(=O)c2c(NCCNCCO)ccc(NCCNCCO)c21` [mitoxantrone], in test [2], the “compatible administration effect with l-OHP, summary in words” value was “the additive effect or the synergistic effect regardless of the administration method and the dosage in almost all the cases; also recorded: synergistic effects can be obtained in all the combinations when a small amount of the mitoxantrone is employed and the l-OHP is added later”. Also, in test [2] (setting [3]), the “Compatible Effects of l-OHP and Compatible Agent, Time Lag Administration, Addition Administration of Compatible Agent day 2” value (“Compatible Effects … of Compatible Agent day 2” below) is on record as “• (•: Synergistic Effect)”; the “Compatible Effects of l-OHP and Compatible Agent, Time Lag Administration, Addition Administration of Compatible Agent day 3” value (shortened to “Compatible Effects … of Compatible Agent day 3”) was “◯ (◯: Additive Effect)”; the “Compatible Effects of l-OHP and Compatible Agent, Time Lag Administration, Addition Administration of Compatible Agent day 4” value (“Compatible Effects … of Compatible Agent day 4” for short) was “Δ (Δ: Below Additive Effect)”. Also, in test [2] (setting [4]), the “Compatible Effects of l-OHP and Compatible Agent, Simultaneous Administration” value (“Compatible Effects … Simultaneous Administration” below) is on record as “◯ (◯: Additive Effect)”. Further, in test [2] (setting [5]), the “Compatible Effects of l-OHP and Compatible Agent, Time Lag Administration, Addition Administration of l-OHP day 2” value (“Compatible Effects … of l-OHP day 2” below) is on record as “◯ (◯: Additive Effect)”; the “Compatible Effects of l-OHP and Compatible Agent, Time Lag Administration, Addition Administration of l-OHP day 3” value (“Compatible Effects … of l-OHP day 3” below) is on record as “◯ (◯: Additive Effect)”; the “Compatible Effects of l-OHP and Compatible Agent, Time Lag Administration, Addition Administration of l-OHP day 4” value (“Compatible Effects … of l-OHP day 4” below) is reported as “◯ (◯: Additive Effect)”. In addition, in test [2] (setting [6]), the “Compatible Effects … of Compatible Agent day 2” value is reported as “◯ (◯: Additive Effect)”; the “Compatible Effects … of Compatible Agent day 3” value is reported as “• (•: Synergistic Effect)”; the “Compatible Effects … of Compatible Agent day 4” value is “Δ (Δ: Below Additive Effect)”. For the same compound, in test [2] (setting [7]), the “Compatible Effects … Simultaneous Administration” value is on record as “• (•: Synergistic Effect)”. For the same compound, in test [2] (setting [8]), the “Compatible Effects … of l-OHP day 2” value is “• (•: Synergistic Effect)”; the “Compatible Effects … of l-OHP day 3” value is on record as “• (•: Synergistic Effect)”; the “Compatible Effects … of l-OHP day 4” value is on record as “• (•: Synergistic Effect)”.
For bleomycin, in test [2], the “compatible administration effect with l-OHP, summary in words” value is “the additive effect or the synergistic effect regardless of the administration method and the dosage in almost all the cases; also recorded: synergistic effects can be obtained in most combinations when the l-OHP is added later at a third day and a fourth day”. For the same compound, in test [2] (setting [3]), the “Compatible Effects … of Compatible Agent day 2” value is “Δ (Δ: Below Additive Effect)”; the “Compatible Effects … of Compatible Agent day 3” value is reported as “◯ (◯: Additive Effect)”; the “Compatible Effects … of Compatible Agent day 4” value is “• (•: Synergistic Effect)”. In test [2] (setting [4]), the “Compatible Effects … Simultaneous Administration” value is “Δ (Δ: Below Additive Effect)”. In test [2] (setting [5]), the “Compatible Effects … of l-OHP day 2” value is given as “Δ (Δ: Below Additive Effect)”; the “Compatible Effects … of l-OHP day 3” value is given as “• (•: Synergistic Effect)”; the “Compatible Effects … of l-OHP day 4” value is “• (•: Synergistic Effect)”. For the same compound, in test [2] (setting [6]), the “Compatible Effects … of Compatible Agent day 2” value is “Δ (Δ: Below Additive Effect)”; the “Compatible Effects … of Compatible Agent day 3” value is “• (•: Synergistic Effect)”; the “Compatible Effects … of Compatible Agent day 4” value was “Δ (Δ: Below Additive Effect)”. For the same compound, the “Compatible Effects … Simultaneous Administration” value in test [2] (setting [7]) is reported as “• (•: Synergistic Effect)”. Besides, in test [2] (setting [8]), the “Compatible Effects … of l-OHP day 2” value is “◯ (◯: Additive Effect)”; the “Compatible Effects … of l-OHP day 3” value is given as “• (•: Synergistic Effect)”; the “Compatible Effects … of l-OHP day 4” value is on record as “◯ (◯: Additive Effect)”.
